Values of other authors as cited in US20080089848A1, “INTRATHECAL INJECTION OF MICROBUBBLES” (priority 2006, published 2008).

Tests used:
[1] = system: middle cerebral artery occlusion
vasospasm [2] = system: vasospasm
[3] = system: glutamate-induced nitric oxide related neurotoxicity
[4] = systemic administration, patients with intracranial hypertension
traumatic brain injury = settings: parental administration no more than 12 hours post-trauma
[5] = system: primary murine cerebellar granule neurons
[6] = system: beta amyloid protein; dopaminergic neurons
vasospasm following SAH = settings: collagen devices, canines with autologous blood in the cisterna magna
vasospasm [7] = system: vasospasm; remark: listed apart in the source
[8] = rat MCA occlusion, retrograde cerebral vein infusion
[9] = intracisternal injection, patients, Hamada 2003

CCNCc1cc(C(C)(C)C)c(O)c(C(C)(C)C)c1 [LY231617]
BBB permeability [1, 8]: significant improvement
local cerebral blood flow [1, 8]: significant increase
ischemic damage ([1]; seven hours post-MCA occlusion): significantly reduced

NCCN(CCN)/[N+]([O-])=N/O [diethylene-triamine/NO]
vasospasm in rabbits (vasospasm [2]; implants in the cisterna magna, Pradilla): prevented vasospasm
vasospasm in the rabbit basilar artery (vasospasm [2]; implants in the subarachnoid space, Gabikian): prevented vasospasm

CN(c1nc2ccccc2s1)C1CCN(C[C@H](O)COc2ccc(F)c(F)c2)CC1 [lubeluzole]
glutamate-induced nitric oxide related neurotoxicity [3]: inhibits

O=S(=O)([O-])[O-].[Mg+2] [magnesium sulfate]
CSF ionized magnesium concentration [4]: failed to increase
increase of plasma magnesium levels [4]: > 50%

[Mg+2] [magnesium]
brain magnesium homeostasis (traumatic brain injury): restores brain magnesium homeostasis
motor and cognitive outcome (traumatic brain injury): profoundly improves both motor and cognitive outcome

TNF-α
concentration that markedly reduces the capacity of IGF-I to promote survival [5]: ≥ 10 pg/mL

VEGF
neuroprotection in AD ([6]; Yang): provides neuroprotection in AD by binding to beta amyloid protein
neuroprotection in PD ([6]; low dose, Yasuhara): neuroprotective towards dopaminergic neurons

hirudin
reduction in the diameter of the basilar artery (vasospasm following SAH): lowered the reduction in the diameter of the basilar artery

urokinase
safety and prevention of vasospasms (vasospasm [7]; human, in vivo): safe and reasonable means of preventing vasospasms
occurrence of symptomatic vasospasm (vasospasm [7]; [9]): significantly reduced
rate of permanent neurological deficits (vasospasm [7]; [9]): lower rate
